Data: patent publication US20190111137A1, “METHODS FOR ANTAGONISTS OF A NON-SELECTIVE CATION CHANNEL IN NEURAL CELLS” (University of Maryland, Baltimore, priority 2007, published 2019)
pEC50, pIC50: −log10 of the molar value. “Also recorded” adds a separate entry of the source. Read-outs that look alike come from different tables or passages of the source.

How the values were obtained:
[1] = system: reactive astrocytes; conditions: without ATP depletion; cited from earlier work
[2] = biological target: T1, NCCa-ATP channel (Rattus norvegicus, UniProt Q09429+Q9ESQ5); conditions: cited from earlier work; for channel opening in the presence of ATP: K+ channel openers
T1 construct: endogenous in cells; host or cells: freshly isolated native reactive astrocytes from the hypoxic gliotic capsule

[3] = biological target: T2, NCCa-ATP channel (Mus musculus, UniProt B2RUS7+Q7TN37); test: Patch clamp of bEnd.3 cells exposed to TNFα, ATP depleted with Na azide plus 2-DG; assay type: cell-based, murine; conditions: TNFα-treated bEnd.3 cells; for block of single channel activity (inside-out patch): Cs+ as the only permeant cation
T2 construct: exposure to TNFα causes expression of a new channel that is not present before exposure to TNFα; host or cells: bEnd.3 cells exposed to TNFα
Method: (§1) (iii) Pharmacological block of SUR1 and TRPM4/patch clamp.
(§2) Patch clamp was performed using a nystatin-perforated patch technique to maintain the metabolic integrity of the cells.
(§3) Single channel recordings were performed using inside-out patches, with Cs^+ as the only permeant cation.
(§4) Apart from direct application of PIP2 (FIG. 24A), PIP2 levels can be augmented by inhibiting spontaneously active PLC.
(§5) PATCH CLAMP. […] In general, recordings are carried out using a Cs^+ rich solution, to preclude recording activity from any K^+ channel including KATP channel.

[4] = system: isolated retina of chick embryo; conditions: cited from earlier work
[5] = biological target: T3, TRPM2 (Homo sapiens, UniProt O94759); conditions: activated by extracellular H2O2; cited from earlier work
T3 construct: host or cells: Chinese hamster ovary cells

[6] = system: rat model of contusion SCI; test: Rat model of unilateral cervical spinal cord injury (SCI); assay type: in vivo; conditions: for neurobehavioral function (inclined plane, rearing) / progressive hemorrhagic necrosis / progressive hemorrhage: post-SCI
[7] = system: permanent middle cerebral artery occlusion (MCAO) model; conditions: cited from earlier work
[8] = system: temporary MCAO model; conditions: cited from earlier work
[9] = system: TRPM4 channel; conditions: cited from earlier work
[10] = biological target: T1, NCCa-ATP channel; test: Patch clamp of NCCa-ATP channel in freshly isolated native reactive astrocytes; assay type: cell-based; conditions: for pEC50: read-out: [ATP]1 EC50
Method: as §5

[11] = biological target: receptor-mediated Ca^2+ entry; conditions: cited from earlier work
[12] = system: endothelial cells of the BBB; conditions: cited from earlier work
[13] = biological target: T4, human TRP3 (Homo sapiens, UniProt Q13507); conditions: high concentrations; cited from earlier work
T4 construct: expressed in transfected cells
T4 sequence (Q13507 1-848 isoform Q13507-3): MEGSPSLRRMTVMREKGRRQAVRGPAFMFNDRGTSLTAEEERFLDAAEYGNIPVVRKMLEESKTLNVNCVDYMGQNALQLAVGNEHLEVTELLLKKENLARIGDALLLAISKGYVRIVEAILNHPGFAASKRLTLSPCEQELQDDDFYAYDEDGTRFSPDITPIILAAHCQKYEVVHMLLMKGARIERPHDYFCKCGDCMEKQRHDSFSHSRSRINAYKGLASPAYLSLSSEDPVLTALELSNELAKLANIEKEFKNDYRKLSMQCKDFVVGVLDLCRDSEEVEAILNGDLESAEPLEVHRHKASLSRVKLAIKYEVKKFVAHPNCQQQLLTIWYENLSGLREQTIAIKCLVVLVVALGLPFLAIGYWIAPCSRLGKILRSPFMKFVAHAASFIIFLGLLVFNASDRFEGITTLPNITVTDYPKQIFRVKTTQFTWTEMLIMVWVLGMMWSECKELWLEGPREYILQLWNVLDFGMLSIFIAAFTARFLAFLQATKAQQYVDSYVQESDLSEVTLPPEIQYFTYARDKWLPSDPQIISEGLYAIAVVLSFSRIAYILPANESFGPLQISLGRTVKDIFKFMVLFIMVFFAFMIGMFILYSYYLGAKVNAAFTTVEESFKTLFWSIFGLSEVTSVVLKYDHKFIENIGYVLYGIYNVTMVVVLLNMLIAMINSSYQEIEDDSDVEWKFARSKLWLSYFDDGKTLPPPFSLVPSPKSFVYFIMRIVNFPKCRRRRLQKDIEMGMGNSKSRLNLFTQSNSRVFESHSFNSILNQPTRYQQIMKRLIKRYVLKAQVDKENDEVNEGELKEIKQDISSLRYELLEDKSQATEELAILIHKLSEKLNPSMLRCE

[14] = system: rodent model of transient focal ischemia; conditions: pre- or post-ischemic administration; cited from earlier work
[15] = system: global cerebral ischemia in gerbils; conditions: in vivo; cited from earlier work
[16] = system: rat model of contusion SCI; conditions: as reported (Simard et al., 2007); cited from earlier work
[17] = system: NCCa-ATP channel; test: Patch clamp of bEnd.3 cells exposed to TNFα, ATP depleted with Na azide plus 2-DG; assay type: cell-based, murine
Method: as §1, §2, §3, §4, §5

[18] = system: rat model of ischemic stroke; conditions: given 30 min after initiation of permanent MCAO; cited from earlier work
[19] = after 6 h of vascular occlusion
[20] = Membrane Preparation derived from freshly isolated native reactive astrocytes

T1 sequence (Q09429 whole entry): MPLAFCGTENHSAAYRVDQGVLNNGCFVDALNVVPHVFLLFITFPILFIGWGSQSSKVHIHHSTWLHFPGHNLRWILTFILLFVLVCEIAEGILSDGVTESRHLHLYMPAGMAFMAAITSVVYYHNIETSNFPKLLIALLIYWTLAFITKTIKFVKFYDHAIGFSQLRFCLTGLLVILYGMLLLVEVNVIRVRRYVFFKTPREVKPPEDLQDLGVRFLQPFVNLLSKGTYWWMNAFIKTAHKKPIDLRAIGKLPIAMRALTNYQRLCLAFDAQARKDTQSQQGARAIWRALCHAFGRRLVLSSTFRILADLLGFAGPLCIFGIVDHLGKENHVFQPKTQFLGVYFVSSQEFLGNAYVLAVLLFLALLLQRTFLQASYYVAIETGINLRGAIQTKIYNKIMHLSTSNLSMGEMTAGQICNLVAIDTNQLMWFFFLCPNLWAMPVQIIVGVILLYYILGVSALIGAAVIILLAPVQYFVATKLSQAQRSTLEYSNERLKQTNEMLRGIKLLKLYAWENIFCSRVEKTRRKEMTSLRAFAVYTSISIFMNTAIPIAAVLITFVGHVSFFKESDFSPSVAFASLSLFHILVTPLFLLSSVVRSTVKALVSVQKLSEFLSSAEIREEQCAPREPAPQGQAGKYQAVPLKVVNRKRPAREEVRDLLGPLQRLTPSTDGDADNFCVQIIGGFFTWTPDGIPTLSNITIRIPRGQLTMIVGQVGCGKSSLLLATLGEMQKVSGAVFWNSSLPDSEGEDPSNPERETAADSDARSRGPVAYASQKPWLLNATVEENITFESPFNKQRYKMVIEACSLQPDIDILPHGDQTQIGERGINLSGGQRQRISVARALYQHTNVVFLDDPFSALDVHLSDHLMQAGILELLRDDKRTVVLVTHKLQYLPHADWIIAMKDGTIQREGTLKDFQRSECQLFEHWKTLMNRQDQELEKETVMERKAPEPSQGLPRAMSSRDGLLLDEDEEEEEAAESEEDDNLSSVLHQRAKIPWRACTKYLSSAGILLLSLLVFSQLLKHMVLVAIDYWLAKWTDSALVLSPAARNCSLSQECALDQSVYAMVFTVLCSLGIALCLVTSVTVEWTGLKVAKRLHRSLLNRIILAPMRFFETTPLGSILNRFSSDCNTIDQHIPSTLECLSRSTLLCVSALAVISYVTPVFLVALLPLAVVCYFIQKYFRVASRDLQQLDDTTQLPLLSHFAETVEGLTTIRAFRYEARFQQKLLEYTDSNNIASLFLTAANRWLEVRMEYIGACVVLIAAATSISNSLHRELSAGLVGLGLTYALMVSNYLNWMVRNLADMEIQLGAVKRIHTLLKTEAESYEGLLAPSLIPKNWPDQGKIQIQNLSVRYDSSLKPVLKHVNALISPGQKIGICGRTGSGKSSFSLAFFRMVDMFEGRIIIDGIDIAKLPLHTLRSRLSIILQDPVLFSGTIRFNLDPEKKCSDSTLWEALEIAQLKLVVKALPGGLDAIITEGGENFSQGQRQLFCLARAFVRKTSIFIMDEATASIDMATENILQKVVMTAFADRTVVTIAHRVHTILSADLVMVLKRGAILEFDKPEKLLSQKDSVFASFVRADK
T1 sequence (Q9ESQ5 whole entry): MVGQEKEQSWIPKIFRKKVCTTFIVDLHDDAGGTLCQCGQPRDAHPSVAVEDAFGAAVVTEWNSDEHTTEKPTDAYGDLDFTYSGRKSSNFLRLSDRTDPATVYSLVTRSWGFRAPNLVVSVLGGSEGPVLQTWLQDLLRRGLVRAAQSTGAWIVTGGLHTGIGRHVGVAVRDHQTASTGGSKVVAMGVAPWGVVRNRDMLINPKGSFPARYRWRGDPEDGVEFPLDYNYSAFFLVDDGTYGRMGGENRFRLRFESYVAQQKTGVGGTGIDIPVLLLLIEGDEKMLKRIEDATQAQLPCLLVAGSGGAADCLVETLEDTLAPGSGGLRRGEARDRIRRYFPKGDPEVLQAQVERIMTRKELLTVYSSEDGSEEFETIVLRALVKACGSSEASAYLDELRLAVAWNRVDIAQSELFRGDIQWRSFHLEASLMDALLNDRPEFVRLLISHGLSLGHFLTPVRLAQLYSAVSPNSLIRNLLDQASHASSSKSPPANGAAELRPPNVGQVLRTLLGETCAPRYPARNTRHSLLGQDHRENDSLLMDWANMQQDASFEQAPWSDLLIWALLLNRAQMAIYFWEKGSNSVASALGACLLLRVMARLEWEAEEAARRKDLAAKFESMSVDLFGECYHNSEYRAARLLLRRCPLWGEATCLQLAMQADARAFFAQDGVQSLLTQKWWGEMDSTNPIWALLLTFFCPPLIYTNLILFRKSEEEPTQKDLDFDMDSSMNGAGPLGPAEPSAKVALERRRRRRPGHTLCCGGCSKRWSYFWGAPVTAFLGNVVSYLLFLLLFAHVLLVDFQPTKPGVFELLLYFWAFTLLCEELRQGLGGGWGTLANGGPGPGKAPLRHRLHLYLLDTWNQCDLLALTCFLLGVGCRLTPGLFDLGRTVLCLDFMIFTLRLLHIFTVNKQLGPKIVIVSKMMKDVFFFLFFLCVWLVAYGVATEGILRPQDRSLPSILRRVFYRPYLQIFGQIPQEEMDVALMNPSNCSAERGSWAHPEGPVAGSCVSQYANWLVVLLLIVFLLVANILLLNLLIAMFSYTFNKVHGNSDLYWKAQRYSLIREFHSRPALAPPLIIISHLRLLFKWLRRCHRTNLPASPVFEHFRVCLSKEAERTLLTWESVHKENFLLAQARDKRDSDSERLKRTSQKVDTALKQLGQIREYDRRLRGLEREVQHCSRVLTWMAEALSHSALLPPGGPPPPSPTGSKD
T3 sequence (O94759 whole entry): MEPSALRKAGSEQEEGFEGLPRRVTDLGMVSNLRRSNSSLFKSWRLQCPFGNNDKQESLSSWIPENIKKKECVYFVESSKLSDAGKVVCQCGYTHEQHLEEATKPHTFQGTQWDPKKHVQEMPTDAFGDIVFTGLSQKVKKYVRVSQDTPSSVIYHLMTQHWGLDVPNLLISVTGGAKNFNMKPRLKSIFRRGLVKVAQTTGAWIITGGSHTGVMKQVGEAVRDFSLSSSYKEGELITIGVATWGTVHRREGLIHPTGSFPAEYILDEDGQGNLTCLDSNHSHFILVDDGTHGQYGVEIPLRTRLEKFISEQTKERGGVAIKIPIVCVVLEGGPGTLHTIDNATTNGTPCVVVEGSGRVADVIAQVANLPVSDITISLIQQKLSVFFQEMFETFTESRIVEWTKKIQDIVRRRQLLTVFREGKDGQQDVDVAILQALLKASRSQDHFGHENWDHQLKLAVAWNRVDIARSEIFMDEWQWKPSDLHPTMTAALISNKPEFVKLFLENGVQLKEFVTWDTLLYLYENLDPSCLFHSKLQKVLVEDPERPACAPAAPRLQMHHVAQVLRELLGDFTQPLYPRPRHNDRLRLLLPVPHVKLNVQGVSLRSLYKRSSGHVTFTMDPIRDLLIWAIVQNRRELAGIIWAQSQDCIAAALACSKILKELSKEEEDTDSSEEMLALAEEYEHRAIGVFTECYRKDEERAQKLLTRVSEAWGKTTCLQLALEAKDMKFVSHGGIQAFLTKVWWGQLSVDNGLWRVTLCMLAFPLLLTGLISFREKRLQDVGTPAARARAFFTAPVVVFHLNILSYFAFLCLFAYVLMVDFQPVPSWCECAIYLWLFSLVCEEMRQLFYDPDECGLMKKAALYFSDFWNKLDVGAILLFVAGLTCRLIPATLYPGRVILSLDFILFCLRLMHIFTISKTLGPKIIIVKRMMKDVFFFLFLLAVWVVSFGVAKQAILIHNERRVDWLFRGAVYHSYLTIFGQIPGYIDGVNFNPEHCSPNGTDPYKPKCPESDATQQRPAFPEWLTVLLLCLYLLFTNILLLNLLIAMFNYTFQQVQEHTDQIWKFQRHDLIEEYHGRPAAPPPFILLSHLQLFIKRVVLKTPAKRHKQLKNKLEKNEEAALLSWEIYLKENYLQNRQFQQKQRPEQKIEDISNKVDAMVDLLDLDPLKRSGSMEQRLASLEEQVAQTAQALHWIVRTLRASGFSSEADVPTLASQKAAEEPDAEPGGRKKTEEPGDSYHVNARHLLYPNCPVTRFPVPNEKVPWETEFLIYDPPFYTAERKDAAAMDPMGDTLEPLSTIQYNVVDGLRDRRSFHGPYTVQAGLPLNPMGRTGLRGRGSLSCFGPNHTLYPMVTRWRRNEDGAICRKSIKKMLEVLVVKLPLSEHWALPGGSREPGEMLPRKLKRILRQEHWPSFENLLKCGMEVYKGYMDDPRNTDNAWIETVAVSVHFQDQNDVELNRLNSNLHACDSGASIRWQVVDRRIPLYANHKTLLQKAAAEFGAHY

## CC1=NS(=O)(=O)c2cc(Cl)ccc2N1 [diazoxide]
[1]
  bleb formation: reproduced
[2]
  channel opening in the presence of ATP: increased

## O=C(O)c1ccccc1Nc1cccc(C(F)(F)F)c1 [flufenamic acid]
[3]
  block of current activated by ATP depletion (whole cell): blocked; also recorded: also blocks this current
  block of single channel activity (inside-out patch): blocked
[3]; 100 μM flufenamic acid
  block of current activated by ATP depletion (whole cell): blocked
[3]; listed as FFA
  block of current activated by ATP depletion (whole cell): blocked
[4]
  protection of the retina against ischemic or excitotoxic insult: protected
[5]
  inhibition of TRPM2: inhibits
[6]; 24-hr post-SCI, post-treatment
  amount of blood in cord homogenates: significant decrease in blood
[6]; 24 h post-SCI
  hemorrhage in cords (surface and sections): less hemorrhage
[6]
  neurobehavioral function (inclined plane, rearing): improves neurological function; also recorded: improved
  progressive hemorrhagic necrosis / progressive hemorrhage: reduces progressive hemorrhagic necrosis; also recorded: blocked
[6]; listed as FFA
  neurobehavioral function (inclined plane, rearing): improve neurobehavioral function; also recorded: significantly better performance than controls
  progressive hemorrhagic necrosis / progressive hemorrhage: prevented
[6]; region of injury post-SCI, listed as FFA
  capillary integrity (vimentin immunolabeling): elongated capillaries; also recorded: elongated and more intact

## S=C(S)N1CCCC1 [PDTC, pyrrolidine dithiocarbamate]
[6]; 24 h post-SCI
  TRPM4 expression in cord (immunolabeling): significantly decreased; also recorded: reduces TRPM4 expression
[6]
  neurobehavioral function (inclined plane, rearing): improved functional outcome

## COc1cc2c(cc1OC)C(C(C(=O)N(CCc1ccc(OC)c(OC)c1OC)CCc1ccc(OC)c(OC)c1OC)c1ccccc1)=NCC2 (racemic) [pinokalant, (R,S)-(3,4-dihydro-6,7-dimethoxy-isoquinoline-1-yl)-2-phenyl-N,N-di[2-(2,3,4-trimethoxyphenyl)ethyl]-acetamide]
[7]; [19]
  blood flow: significantly higher
  volume of ATP-depleted and morphologically injured tissue (infarct core), smaller: 60-70%
[7]; during the initial 6 h of vascular occlusion
  decrease of ADC lesion volume: approximately 20%
[7]; volume of severely acidic tissue
  size of ischemic penumbra: does not reduce
[8]; 4 h after MCAO
  DWI-derived infarct volume: significantly smaller
[8]; 24 h
  neurological scores: significantly better
[8]; postmortem
  TTC-derived infarct volume: significantly attenuated
[8]; rat, in vivo
  size of the ischemic core: significantly smaller

## CCCCNC(=O)NS(=O)(=O)c1ccc(C)cc1 [tolbutamide]
[2]; pH 7.4, read-out: block of NCCa-ATP channel opening (EC50)
  pEC50: 4.79

## Cc1ccc(Cl)c(Nc2ccccc2C(=O)O)c1Cl [meclofenamic acid]
[4]
  protection of the retina against ischemic or excitotoxic insult: protected

## Nc1ncnc2c1ncn2[C@@H]1O[C@H](COP(=O)(O)O)[C@@H](O)[C@H]1O [AMP]
[9]
  ADP, AMP block: yes
[2]; SUR1-regulated NCCa-ATP
  ADP, AMP block: no
[2]
  effect of ADP or AMP on channel opening: unaffected
[10]; [20]
  ADP AMP channel effect: No channel
[10]; Reactive Astrocytes
  ADP AMP channel effect: No channel

## CC1(C)Oc2ccc(C#N)cc2C(N2CCCC2=O)C1O (centres unmarked) [cromakalin]
[2]
  channel opening in the presence of ATP: not

## Nc1ncnc2c1ncn2[C@@H]1O[C@H](COP(=O)(O)OP(=O)(O)OP(=O)(O)O)[C@@H](O)[C@H]1O [ATP]
[3]
  block of single channel activity (inside-out patch): reversibly blocked
[9]; read-out: ATP block (EC50)
  pEC50: 5.77 to 6.89
[2]; SUR1-regulated NCCa-ATP, read-out: ATP block (EC50)
  pEC50: 6.10
[2]; read-out: Channel opening blocked by ATP (EC50)
  pEC50: 6.10
[10]; [20]
  pEC50: 6.10
[10]; Reactive Astrocytes
  pEC50: 6.10

## COc1ccc(CCCOC(Cn2ccnc2)c2ccc(OC)cc2)cc1.Cl (stereo not drawn) [SKF 96365, 1-(beta[3-(4-methoxy-phenyl)propoxy]-4-methoxyphenethyl)-1H-imidazole hydrochloride]
[11]
  pIC50: ~5.00
[12]; after hypoxic/aglycemic stress
  expression of the tight junction protein occludin: increased
[12]; normoglycemia
  hypoxia-induced BBB disruption: protective
[13]
  increased Ca^2+ entry in TRP3-expressing cells: blocked

## Cc1cccc(Nc2ccccc2C(=O)O)c1C [mefenamic acid]
[14]
  neuroprotection (necrosis in cortex and subcortical structures): no neuroprotection
[4]
  protection of the retina against ischemic or excitotoxic insult: protected

## Oc1cc2c(cc1O)CN(C(=S)NCCc1ccc(Cl)cc1)CCC2 [capsazepine]
[15]
  effect on rimonabant-induced and capsaicin-induced neuroprotective effects: reversed

## CCOc1cc(CC(=O)N[C@@H](CC(C)C)c2ccccc2N2CCCCC2)ccc1C(=O)O [repaglinide]
[16]
  neurological function: improves neurological function
  progressive hemorrhagic necrosis: reduces progressive hemorrhagic necrosis

## COc1ccc2c(c1)CC[C@@H]1[C@@H]2CC[C@]2(C)[C@@H](NCCCCCCN3C(=O)C=CC3=O)CC[C@@H]12 [U73122]
[17]; TNFα-stimulated bEnd.3 cells
  channel activation by inhibiting phospholipase C (whole cell): activated an ohmic current; also recorded: channel activation
[17]; control bEnd.3 cells
  channel activation by inhibiting phospholipase C (whole cell): without effect

## COc1cc(CNC(=O)CCCC/C=C/C(C)C)ccc1O [capsaicin]
[15]
  electroencephalographic changes, hyperlocomotion and memory impairment induced by global ischemia: antagonize
  survival of pyramidal cells in the CA1 subfield of the hippocampus: progressive survival

## Nc1ncnc2c1ncn2[C@@H]1O[C@H](COP(=O)(O)OP(=O)(O)O)[C@@H](O)[C@H]1O [ADP]
[9]
  ADP, AMP block: yes
[2]; SUR1-regulated NCCa-ATP
  ADP, AMP block: no
[2]
  effect of ADP or AMP on channel opening: unaffected
[10]; [20]
  ADP AMP channel effect: No channel
[10]; Reactive Astrocytes
  ADP AMP channel effect: No channel

## [Ca+2] [Ca^2+]
[9]; read-out: Ca^2+ activation (EC50)
  pEC50: 5.89
[2]; SUR1-regulated NCCa-ATP, read-out: Ca^2+ activation (EC50)
  pEC50: 5.82 to 6.92
[10]; [20]
  Activation [Ca^2+]: <1.0 µM
[10]; Reactive Astrocytes
  Activation [Ca^2+]: <1.0 µM

## PIP2
[9]
  PIP2 activation: yes
[10]; SUR1-regulated NCCa-ATP, unpublished observations
  PIP2 activation: yes*
[10]; inside-out patch, high concentration of ATP (10 mM) on the cytoplasmic side
  channel activity after addition of PIP2: robust channel activation; also recorded: release of inhibition

## Cc1c(C(=O)NN2CCCCC2)nn(-c2ccc(Cl)cc2Cl)c1-c1ccc(Cl)cc1 [rimonabant]
[15]
  electroencephalographic changes, hyperlocomotion and memory impairment induced by global ischemia: antagonize
  survival of pyramidal cells in the CA1 subfield of the hippocampus: progressive survival
[18]
  reduction of infarct volume: ~40%

## CC(N/C(=N\C#N)Nc1ccncc1)C(C)(C)C (centres unmarked) [pinacidil]
[2]
  channel opening in the presence of ATP: not
